Laboratory results published in patent publication US8637525B2, “Compounds for the reduction of beta-amyloid production” (Bristol-Myers Squibb Company, priority 2009, dated 2014).
Read-outs that look alike come from different tables or passages of the source.

System: Aβ1-42 production
Assay: Cellular assay for inhibition of Aβ1-42 production (H4 APP751 SWE clone 8.20)
Assay type: cell-based
Settings: H4 APP751 SWE clone 8.20 cells, 19 h incubation
How it was run: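 Compound-treated cells were incubated 19 h at 37 °C in 5% CO2. Aβ42 in the cell plate was detected overnight at 4 °C with an Aβ42 neoepitope antibody (565, Wallac-labelled, 0.8 ng/well) plus N-terminal antibody 26D6 (APC, 75 ng/well) in 40 mM Tris-HCl pH 7.4, 0.2% BSA. IC50s came from curve fitting.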

[1] = class symbols, read-out: Activity Rating (Aβ42 cellular IC50)
[2] = 19 h, class symbols, read-out: Activity Rating (Aβ42 cellular IC50)
[3] = 19 h, read-out: Activity Rating (Aβ42 cellular IC50), numeric value

Compound: COc1cc(Nc2nc(N[C@H](C)C3CC3)c3c(n2)C(c2ccc(C(F)(F)F)cc2)COC3)ccc1-n1cnc(Cl)c1 (stereo partly drawn) [Example 117A, N2-(4-(4-chloro-1H-imidazol-1-yl)-3-methoxyphenyl)-N4-((R)-1-cyclopropylethyl)-8-(4-(trifluoromethyl)phenyl)-7,8-dihydro-5H-pyrano[4,3-d]pyrimidine-2,4-diamine]
- IC50 [1]: 10 to 100 nM

Compound: COc1cc(Nc2nc3c(c(N4CCCC4C)n2)CCC3c2ccc(F)cc2)ccc1-n1cnc(Cl)c1 (single isomer, unassigned) [Example 20A, N-(4-(4-chloro-1H-imidazol-1-yl)-3-methoxyphenyl)-7-(4-fluorophenyl)-4-(2-methylpyrrolidin-1-yl)-6,7-dihydro-5H-cyclopenta[d]pyrimidin-2-amine]
- IC50 [1]: 1.5 to 9.9 nM

Compound: COc1cc(Nc2nc3c(c(N4CC(F)C4)n2)CCC3c2ccccc2)ccc1-n1cnc(Cl)c1 (stereo not shown) [Example 182A, N-(4-(4-chloro-1H-imidazol-1-yl)-3-methoxyphenyl)-4-(3-fluoroazetidin-1-yl)-7-phenyl-6,7-dihydro-5H-cyclopenta[d]pyrimidin-2-amine]
- IC50 [1]: 1.5 to 9.9 nM

Compound: COc1cc(Nc2nc3c(c(N(C)C)n2)COCC3c2ccc(F)cc2)ccc1-n1cnc(Cl)c1 (stereo not shown) [Example 61A, N2-(4-(4-chloro-1H-imidazol-1-yl)-3-methoxyphenyl)-8-(4-fluorophenyl)-N4,N4-dimethyl-7,8-dihydro-5H-pyrano[4,3-d]pyrimidine-2,4-diamine]
- IC50 [1]: 1.5 to 9.9 nM

Compound: COc1cc(Nc2nc3c(c(N4CC(F)(F)C4)n2)COCC3c2ccc(F)cc2)ccc1-n1cnc(Cl)c1 (stereo not shown) [Example 63A, N-(4-(4-chloro-1H-imidazol-1-yl)-3-methoxyphenyl)-4-(3,3-difluoroazetidin-1-yl)-8-(4-fluorophenyl)-7,8-dihydro-5H-pyrano[4,3-d]pyrimidin-2-amine]
- IC50 [1]: 10 to 100 nM

Compound: CCNc1nc(Nc2ccc(-n3cnc(Cl)c3)c(OC)c2)nc2c1CN(C(=O)CN(C)C)CC2c1ccccc1 (stereo not shown) [Example 135, 1-(2-(4-(4-chloro-1H-imidazol-1-yl)-3-methoxyphenylamino)-4-(ethylamino)-8-phenyl-7,8-dihydropyrido[4,3-d]pyrimidin-6(5H)-yl)-2-(dimethylamino)ethanone]
- IC50 [2]: 10 to 100 nM

Compound: CNc1nc(Nc2ccc(-c3cc(Cl)ncn3)c(OC)c2)nc2c1CCC2c1ccccc1 (stereo not shown) [Example 277, N2-(4-(6-chloropyrimidin-4-yl)-3-methoxyphenyl)-N4-methyl-7-phenyl-6,7-dihydro-5H-cyclopenta[d]pyrimidine-2,4-diamine]
- IC50 [2]: > 1000 nM

Compound: COc1cc(Nc2nc3c(c(N4CCCC4C)n2)CCC3c2ccc(F)cc2)ccc1-n1cnc(Cl)c1 (single isomer, unassigned) [Example 19A, N-(4-(4-chloro-1H-imidazol-1-yl)-3-methoxyphenyl)-7-(4-fluorophenyl)-4-(2-methylpyrrolidin-1-yl)-6,7-dihydro-5H-cyclopenta[d]pyrimidin-2-amine]
- IC50 [1]: 10 to 100 nM

Compound: CCN(C)c1nc(Nc2ccc(-n3cnc(Cl)c3)c(OC)c2)nc2c1CCC2c1ccccc1 (single isomer, unassigned) [Example 5A, N^2-(4-(4-chloro-1H-imidazol-1-yl)-3-methoxyphenyl)-N^4-ethyl-N^4-methyl-7-phenyl-6,7-dihydro-5H-cyclopenta[d]pyrimidine-2,4-diamine]
- IC50 [1]: 1.5 to 9.9 nM

Compound: CCNc1nc(Nc2ccc(-n3ncnc3C)c(F)c2)nc2c1CN(S(C)(=O)=O)CC2c1ccc(F)cc1 (stereo not shown) [Example 157, N4-ethyl-N2-(3-fluoro-4-(5-methyl-1H-1,2,4-triazol-1-yl)phenyl)-6-(methylsulfonyl)-8-(4-fluorophenyl)-5,6,7,8-tetrahydropyrido[4,3-d]pyrimidine-2,4-diamine]
- IC50 [2]: 10 to 100 nM

Compound: CNc1nc(Nc2ccc(-n3ncnc3C)c(F)c2)nc2c1CCC2c1ccc(F)cc1 (stereo not shown) [Example 12, N^2-(3-Fluoro-4-(5-methyl-1H-1,2,4-triazol-1-yl)phenyl)-7-(4-fluorophenyl)-N^4-methyl-6,7-dihydro-5H-cyclopenta[d]pyrimidine-2,4-diamine]
- IC50 [2]: 1.5 to 9.9 nM

Compound: CNc1nc(Nc2ccc(-n3cnc(Cl)c3)c(OC)c2)nc2c1CCC2c1ccccc1 (single isomer, unassigned) [Example 7A, N^2-(4-(4-chloro-1H-imidazol-1-yl)-3-methoxyphenyl)-N^4-methyl-7-phenyl-6,7-dihydro-5H-cyclopenta[d]pyrimidine-2,4-diamine]
- IC50 [1]: 1.5 to 9.9 nM

Compound: CNc1nc(Nc2ccc(-n3cnc(Cl)c3)c(OC)c2)nc2c1CCC2c1cc(F)c(F)c(F)c1 (single isomer, unassigned) [Example 103A, N^2-(4-(4-chloro-1H-imidazol-1-yl)-3-methoxyphenyl)-N^4-methyl-7-(3,4,5-trifluorophenyl)-6,7-dihydro-5H-cyclopenta[d]pyrimidine-2,4-diamine]
- IC50 [1]: 1.5 to 9.9 nM

Compound: CNc1nc(Nc2ccc(-n3ncnc3C)c(F)c2)nc2c1CCC2c1ccc(F)cc1 (single isomer, unassigned) [Example 26B, N^2-(3-fluoro-4-(5-methyl-1H-1,2,4-triazol-1-yl)phenyl)-7-(4-fluorophenyl)-N^4-methyl-6,7-dihydro-5H-cyclopenta[d]pyrimidine-2,4-diamine]
- IC50 [1]: 10 to 100 nM

Compound: CCNc1nc(Nc2ccc(-n3ncnc3C)c(F)c2)nc2c1COCC2c1ccc(F)c(F)c1 (stereo not shown) [Example 116A, 8-(3,4-difluorophenyl)-N4-ethyl-N2-(3-fluoro-4-(5-methyl-1H-1,2,4-triazol-1-yl)phenyl)-7,8-dihydro-5H-pyrano[4,3-d]pyrimidine-2,4-diamine]
- IC50 [1]: 1.5 to 9.9 nM

Compound: COc1cc(Nc2nc3c(c(N4CC(F)(F)C4)n2)CCC3c2ccc(F)cc2)ccc1-n1cnc(Cl)n1 (single isomer, unassigned) [Example 17A, N-(4-(3-chloro-1H-1,2,4-triazol-1-yl)-3-methoxyphenyl)-4-(3,3-difluoroazetidin-1-yl)-7-(4-fluorophenyl)-6,7-dihydro-5H-cyclopenta[d]pyrimidin-2-amine]
- IC50 [3]: 120 nM

Compound: CNc1nc(Nc2ccc(-n3cnc(Cl)c3)c(OC)c2)nc2c1COCC2c1ccc(F)cc1 (stereo not shown) [Example 60A, N2-(4-(4-chloro-1H-imidazol-1-yl)-3-methoxyphenyl)-8-(4-fluorophenyl)-N4-methyl-7,8-dihydro-5H-pyrano[4,3-d]pyrimidine-2,4-diamine]
- IC50 [3]: 5.6 nM

Compound: CCNc1nc(Nc2ccc(-n3cnc(Cl)c3)c(OC)c2)nc2c1COCC2c1ccc(C(F)(F)F)cc1 (stereo not shown) [Example 118B, N2-(4-(4-chloro-1H-imidazol-1-yl)-3-methoxyphenyl)-N4-ethyl-8-(4-(trifluoromethyl)phenyl)-7,8-dihydro-5H-pyrano[4,3-d]pyrimidine-2,4-diamine]
- IC50 [1]: 100 to 1000 nM

Compound: CNc1nc(Nc2ccc(-n3cnc(Cl)c3)c(OC)c2)nc2c1CCOC2c1ccccc1 (stereo not shown) [Example 85, N2-(4-(4-chloro-1H-imidazol-1-yl)-3-methoxyphenyl)-N4-methyl-8-phenyl-6,8-dihydro-5H-pyrano[3,4-d]pyrimidine-2,4-diamine]
- IC50 [2]: 1.5 to 9.9 nM

Compound: CCNc1nc(Nc2ccc(-n3cnc(Cl)c3)c(OC)c2)nc2c1CN(S(=O)(=O)CC)CC2c1ccccc1 (stereo not shown) [Example 138, N2-(4-(4-chloro-1H-imidazol-1-yl)-3-methoxyphenyl)-N4-ethyl-6-(ethylsulfonyl)-8-phenyl-5,6,7,8-tetrahydropyrido[4,3-d]pyrimidine-2,4-diamine]
- IC50 [1]: 10 to 100 nM

Compound: COc1cc(Nc2nc3c(c(N4CC[C@@H](F)C4)n2)COCC3c2ccc(OC(F)(F)F)cc2)ccc1-n1cnc(Cl)c1 (stereo partly shown) [Example 123A]
- IC50 [2]: 10 to 100 nM

Compound: COc1cc(Nc2nc3c(c(N4CCC(F)C4)n2)COCC3c2ccc(F)cc2)ccc1-n1cnc(Cl)c1 (stereo in doubt) [Example 58B, N-(4-(4-chloro-1H-imidazol-1-yl)-3-methoxyphenyl)-8-(4-fluorophenyl)-4-((S)-3-fluoropyrrolidin-1-yl)-7,8-dihydro-5H-pyrano[4,3-d]pyrimidin-2-amine]
- IC50 [3]: 120 nM

Compound: CNc1nc(Nc2ccc(-n3cnc(Cl)c3)c(OC)c2)nc2c1COCC2c1ccccc1 (stereo not shown) [Example 51, N^2-(4-(4-chloro-1H-imidazol-1-yl)-3-methoxyphenyl)-N^4-methyl-8-phenyl-7,8-dihydro-5H-pyrano[4,3-d]pyrimidine-2,4-diamine]
- IC50 [3]: 4.5 nM

Compound: CCNc1nc(Nc2ccc(-n3cnc(C)n3)c(F)c2)nc2c1CN(S(C)(=O)=O)CC2c1ccccc1 (stereo not shown) [Example 139, N4-ethyl-N2-(3-fluoro-4-(3-methyl-1H-1,2,4-triazol-1-yl)phenyl)-6-(methylsulfonyl)-8-phenyl-5,6,7,8-tetrahydropyrido[4,3-d]pyrimidine-2,4-diamine]
- IC50 [2]: 10 to 100 nM

Compound: CCN(C)c1nc(Nc2ccc(-n3cnc(Cl)c3)c(OC)c2)nc2c1CCC2c1ccccc1 (stereo not shown) [Example 5, N^2-(4-(4-Chloro-1H-imidazol-1-yl)-3-methoxyphenyl)-N^4-ethyl-N^4-methyl-7-phenyl-6,7-dihydro-5H-cyclopenta[d]pyrimidine-2,4-diamine]
- IC50 [2]: 1.5 to 9.9 nM

Compound: CNc1nc(Nc2ccc(-n3cnc(Cl)c3)c(OC)c2)nc2c1CCC2c1ccccc1 (single isomer, unassigned) [Example 7B, N^2-(4-(4-chloro-1H-imidazol-1-yl)-3-methoxyphenyl)-N^4-methyl-7-phenyl-6,7-dihydro-5H-cyclopenta[d]pyrimidine-2,4-diamine]
- IC50 [1]: 10 to 100 nM

Compound: COc1cc(Nc2nc(NC(C)C)c3c(n2)C(c2ccccc2)CC3)ccc1-n1cnc(Cl)c1 (stereo not shown) [Example 10, N2-(4-(4-chloro-1H-imidazol-1-yl)-3-methoxyphenyl)-N4-isopropyl-7-phenyl-6,7-dihydro-5H-cyclopenta[d]pyrimidine-2,4-diamine]
- IC50 [2]: 1.5 to 9.9 nM

Compound: COc1cc(Nc2nc(N[C@@H](C)C3CC3)c3c(n2)C(c2ccc(F)cc2)CC3)ccc1-n1cnc(Cl)c1 (single isomer, unassigned) [Example 50A]
- IC50 [1]: 1.5 to 9.9 nM
